How the values were obtained:
[1] = system: HDACs; test: In vitro inhibition of HDACs (HDAC Inhibitor Drug Screening Kit, Biovision K340-100); type: biochemical
Description: The in vitro inhibitory activities of the compounds towards HDACs were tested according to the instructions in the HDAC Inhibitor Drug Screening Kit (Biovision/Catalog #K340-100).
(1) The compounds to be tested were each individually prepared as 2 mM, 200 μM and 40 μM solutions and their inhibitory activities at these concentrations were tested.

[2] = system: Hut78 T lymphocytic leukemia cells; test: In vitro anti-proliferative effect, CCK-8 method, Hut78; type: cell-based; details: Homo sapiens, HuT78, read-out: Hut-78 (inhibition %)
Description: (§1) The inhibitory activities of the compounds towards Hut78 T lymphocytic leukemia cells, Jurkat E6-1 human T-cell lymphoma, PANC-1 human pancreatic cancer cells, A549 human lung cancer cells, K562 human chronic myelogenous leukemia cells, Hep3B2.1-7 human liver cancer cells, MDA-MB-435s human breast cancer cells. Colo320 human colorectal cancer cell lines, and PC-3 human prostate cancer at two concentrations of 100 μM and 10 μM were determined. The inhibition percentages were obtained through CCK-8 method.

[3] = system: PANC-1 human pancreatic cancer cells; test: In vitro anti-proliferative effect, CCK-8 method, PANC-1; type: cell-based; details: Homo sapiens, PANC-1
Description: as §1

[4] = system: Jurkat E6-1 human T-cell lymphoma; test: In vitro anti-proliferative effect, CCK-8 method, Jurkat E6-1; type: cell-based; details: Homo sapiens, Jurkat E6.1
Description: as §1

[5] = system: K562 human chronic myelogenous leukemia cells; test: In vitro anti-proliferative effect, CCK-8 method, K562; type: cell-based; details: Homo sapiens, K562
Description: as §1

[6] = system: A549 human lung cancer cells; test: In vitro anti-proliferative effect, CCK-8 method, A549; type: cell-based; details: Homo sapiens, A549
Description: as §1

[7] = system: MDA-MB-435s human breast cancer cells; test: In vitro anti-proliferative effect, CCK-8 method, MDA-MB-435s; type: cell-based; details: Homo sapiens, MDA-MB-435S
Description: as §1

[8] = system: Hep3B2.1-7 human liver cancer cells; test: In vitro anti-proliferative effect, CCK-8 method, Hep3B; type: cell-based; details: Homo sapiens, Hep3B cell strain, CCK-8 method; for inhibition at 10 µM: compound at 10 μM; for inhibition at 100 µM: compound at 100 μM
Description: as §1

[9] = system: PC-3 human prostate cancer; test: In vitro anti-proliferative effect, CCK-8 method, PC-3; type: cell-based; details: Homo sapiens, PC-3 cell strain, CCK-8 method; for inhibition at 10 µM: compound at 10 μM; for inhibition at 100 µM: compound at 100 μM
Description: as §1

[10] = system: Colo320 human colorectal cancer cell lines; test: In vitro anti-proliferative effect, CCK-8 method, Colo320; type: cell-based; details: Homo sapiens, COLO 320, Colo320 cell strain, CCK-8 method; for inhibition at 10 µM: compound at 10 μM; for inhibition at 100 µM: compound at 100 μM
Description: as §1

[11] = Maximum tolerance dose through intragastrical administration; type: in vivo; details: mice, administrated intragastrically
Description: Forty ICR mice, half female and half male, weighing […] were divided into four groups, 10 mice in each group. After the mice were fasted for 6 h, the compound to be tested was administrated intragastrically to each group at a volume of 0.3 ml/10 g by using a sterile plastic syringe. General physical signs and the deaths of the animals were record at 1, 2 and 4 h after the administration. The animals were then observed continuously for 14 days and their weights, physical signs and deaths were observed and recorded every day. Dead animals were dissected to see if there was any visible pathological change in the animal's viscera and pathological examination was performed on suspicious tissues and organs. A part of the experimental results is as follows.

[12] = biological target: HDAC1 (Homo sapiens (Human), UniProt Q13547); test: In vitro inhibition of subtype HDAC1 (HDAC1 Inhibitor Drug Screening Kit, Biovision); type: biochemical; details: for inhibition at 1 µM / inhibition at 10 µM: read-out: % Inhibition towards HDAC1
Chain of HDAC1 (Q13547 whole entry): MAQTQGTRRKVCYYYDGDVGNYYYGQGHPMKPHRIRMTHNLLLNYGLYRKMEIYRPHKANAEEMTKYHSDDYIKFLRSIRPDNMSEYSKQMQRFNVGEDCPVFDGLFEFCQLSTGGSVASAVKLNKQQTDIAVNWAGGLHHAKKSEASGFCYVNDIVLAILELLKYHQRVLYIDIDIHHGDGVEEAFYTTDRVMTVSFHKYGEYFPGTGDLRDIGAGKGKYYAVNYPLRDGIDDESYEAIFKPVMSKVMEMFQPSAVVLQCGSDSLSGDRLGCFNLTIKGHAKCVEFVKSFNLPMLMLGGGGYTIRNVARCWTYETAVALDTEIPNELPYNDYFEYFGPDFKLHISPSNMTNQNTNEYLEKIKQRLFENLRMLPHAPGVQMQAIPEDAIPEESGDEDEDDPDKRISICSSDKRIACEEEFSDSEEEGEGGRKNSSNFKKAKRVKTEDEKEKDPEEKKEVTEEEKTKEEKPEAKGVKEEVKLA
Description: The in vitro inhibitory activities of the compounds towards the subtype HDAC1 were tested according to the instructions in the HDAC1 Inhibitor Drug Screening Kit (Biovision).
(1) The compounds to be tested were each individually prepared as 10 μM and 1 μM solutions and their inhibitory activities at these concentrations were tested.
Each dilution sample was placed in two wells and the enzyme inhibition IC50 of the compound was tested.

Structure (SMILES) | Inhibition percentage (%) towards HDACs ([1]; 40 μM) | inhibition at 10 µM [2] | inhibition at 100 µM [2] | inhibition at 10 µM [3] | inhibition at 100 µM [3] | inhibition at 10 µM [4] | inhibition at 100 µM [4] | inhibition at 10 µM [5] | inhibition at 100 µM [5] | inhibition at 10 µM [6] | inhibition at 100 µM [6] | inhibition at 10 µM [7] | inhibition at 100 µM [7] | inhibition at 10 µM [8] | inhibition at 100 µM [8] | inhibition at 10 µM [9] | inhibition at 100 µM [9] | inhibition at 10 µM [10] | inhibition at 100 µM [10] | maximum tolerance dose [11] | also measured
Nc1cnccc1NC(=O)c1ccc(Nc2ncnc3ccccc23)cc1 [Compound V-2] | 17.6% | 63.4% | 82.8% | 20.7% | 74.1% | 58.5% | 85.9% | 21% | 64.4% | 65.6% | 84.8% | 35.8% | 86.9% | 31.2% | 53.6% | 90.3% | 92.4% | 39.6% | 92.9% | over 2000 mg/kg | Inhibition percentage (%) towards HDACs ([1]; 200 μM): 28.0%; Inhibition percentage (%) towards HDACs ([1]; 2 mM): 77.1%
COc1cc2ncnc(Nc3ccc(C(=O)Nc4ccncc4N)cc3)c2cc1OC [Compound V-4] | 36.3% | 66.4% | 95.8% | 14.4% | 11.9% | 5.4% | 23.7% | -1.3% | 38.1% | -43.9% | -19.4% | -20.7% | -10.4% | -10.2% | -12.1% | 5.2% | 15.9% | 7.1% | 16.8% | over 5000 mg/kg | IC50 [1]: 3.29 µM; inhibitory activity according to in vitro IC50 value against HDACs compared with MS-275 [1]: better inhibitory activities than MS-275; Inhibition percentage (%) towards HDACs ([1]; 200 μM): 70.3%; Inhibition percentage (%) towards HDACs ([1]; 2 mM): 85.3%; inhibitory activity on HDACs compared with MS-275 ([1]; concentrations of 2 mM, 200 μM, and 40 μM): significantly stronger inhibitory activities than MS-275
COc1ccc2ncnc(Nc3ccc(C(=O)Nc4ccccc4N)cc3)c2c1 [Compound V-5, N-(2-aminophenyl)-4-(6-methoxyquinazoline-4-amino)benzamide] | 2.8% | 15% | 43.9% | 10.5% | 45.9% | 62.2% | 87.9% | 49.4% | 83.2% | -44.3% | -13.1% | -14.3% | 84.1% | 7.3% | 66.6% | 0% | 66.7% | 13% | 45.3% | over 2000 mg/kg | IC50 [1]: 7.79 µM; Inhibition percentage (%) towards HDACs ([1]; 200 μM): 16.8%; Inhibition percentage (%) towards HDACs ([1]; 2 mM): 36.7%
COc1cc2ncnc(Nc3ccc(C(=O)Nc4cc(-c5cccs5)ccc4N)cc3)c2cc1OC [Compound V-23, N-[2-amino-5-(2-thienyl)phenyl]-4-(6,7-dimethoxyquinazoline-4-amino)benzamide] | 17.5% | 59.9% | 93.1% | 9.2% | 4% | 4.7% | 52.7% | 12.8% | 61.2% | -7.4% | 6.2% | 21.5% | 42.9% | 1% | 28.1% | 7% | 40.2% | 7.3% | 5.9% |  | Inhibition percentage (%) towards HDACs ([1]; 200 μM): 37.3%; Inhibition percentage (%) towards HDACs ([1]; 2 mM): 40.7%; IC50 [12]: 0.178 µM; inhibition at 1 µM [12]: 19.2%; inhibition at 10 µM [12]: 55.8%
Nc1cnccc1NC(=O)c1ccc(CNc2ncnc3ccccc23)cc1 [Compound V-26] | 11.4% | 79.6% | 86.9% | 5.1% | 40.8% | 76.9% | 95.1% | 54% | 88.2% | 4.2% | 63.7% | 16.6% | 73.6% | 11.7% | 63.5% | 8.7% | 52.6% | -0.2% | 44.4% |  | Inhibition percentage (%) towards HDACs ([1]; 200 μM): 40.2%; Inhibition percentage (%) towards HDACs ([1]; 2 mM): 82.4%; inhibition at 1 µM [12]: 46.4%; inhibition at 10 µM [12]: 88.4%; inhibitory activity against HDAC1 compared with MS-275 ([12]; both concentrations 10 μM and 1 μM): superior to that of MS-275
Nc1ccccc1NC(=O)c1ccc(CNc2ncnc3c(F)cccc23)cc1 [Compound V-43, N-(2-aminophenyl)-4-[(8-fluoroquinazoline-4-amino)methyl]benzamide] |  | 75.7% | 89.6% | 3.1% | 35.9% | 69.1% | 96.8% | 13.8% | 60.8% | 41.2% | 85.5% | 18.8% | 86.4% | 21.2% | 58.8% | 81.4% | 89.4% | 19.1% | 59.4% | over 5000 mg/kg | 
CC(=O)Nc1ccc2ncnc(NCc3ccc(C(=O)Nc4ccccc4N)cc3)c2c1 [Compound V-46, N-(2-aminophenyl)-4-[(6-acetamidoquinazoline-4-amino)methyl]benzamide] |  | 16.4% | 93.4% | 8.1% | 70.4% | 14.8% | 1.9% | 27.3% | 18.9% | 7.7% | 4.1% | 16.4% | 4.1% | 17.5% | -5% | -1.7% | -2.4% | 13.7% | -9% | over 2000 mg/kg | 
CC(=O)Nc1ccc2ncnc(NCc3ccc(C(=O)Nc4ccncc4N)cc3)c2c1 [Compound V-47] |  | 9.9% | 88.3% | 2.8% | 43% | 59.4% | 76.6% | 58% | 62.1% | 9.4% | 8% | 21.8% | 29.2% | 11.2% | 19.2% | 7.2% | 12.8% | 11% | 6% | over 5000 mg/kg | 

Reference: patent US9034886B2, “4-aminoquinazoline derivatives and uses thereof” (Shanghai Institute of Pharmaceutical Industry, priority 2011, dated 2015)
